Measured values taken from patent US20040121936A1, “Composition” (Colgate-Palmolive Company, priority 2001, published 2004).
“Also recorded” adds a separate entry of the source.

Experiments:
[1] = tested on: bacteria; assay: antibacterial efficacy by cup scrub method on humans against the composition without TCC; format: in vivo
Experimental: Using the formulation of Example 1 or Example 2 but with varying amounts of TCC, the amide wherein R is cocoyl, p is 2 and n is 1, and the alcohol wherein R′ is lauryl and q is 7, antibacterial efficacy is measured using a cup scrub method on humans against the composition without TCC.

[2] = stability of TCC in body cleansing composition (precipitate/crystals on storage); format: physicochemical; conditions: for Comments (precipitate/crystals of TCC): 0.15% TCC in body cleansing composition
Source text: Further work on the usefulness of this invention may be seen in the stability data of Example 5. TCC at 0.15% was incorporated in a body cleansing composition of (which may also include the types described above). using Promidium CO alone and in combination with Laureth-7.

Row | Molecule | log reduction of bacteria ([1]; TCC in the compositions, measured against a composition without TCC) | Comments (precipitate/crystals of TCC) ([2]; Promidium CO 0.675%, Laureth-7 0.675%) | Comments (precipitate/crystals of TCC) ([2]; Promidium CO 3.0%, Laureth-7 0.0%) | time for which no precipitate or crystals were observed ([2]; body cleansing composition with combination of Promidium CO and Laureth-7) [weeks] | effect of presence on antibacterial efficacy ([1]; presence of Promidium Co and/or laureth-7 in the composition)
1 | O=C(Nc1ccc(Cl)cc1)Nc1ccc(Cl)c(Cl)c1 [TCC, 3,4,4′-trichlorocarbanilide] | greater than 1 log | no precipitate or crystals were observed; also recorded: No Precipitate or crystals even | precipitate/crystals of TCC were observed at the bottom of the container after 4-5 weeks; also recorded: Precipitate/Crystals in 4-5 Weeks | ≥ 13 | 
2 | PPG-2 hydroxyethyl cocoamide [Promidium CO] |  |  |  |  | does not significantly affect antibacterial efficacy
